Patent publication US20240228504A1, “SUBSTITUTED TRICYCLIC AMIDES, ANALOGUES THEREOF, AND METHODS USING SAME” (Arbutus Biopharma Corporation, priority 2020, published 2024)

The compounds below were run on HBV rcDNA in HepDE19 cells (assay: HepDE19 assay with bDNA quantitation of HBV rcDNA). Settings: HepDE19 assay, inhibition of rcDNA formation, bDNA quantitation; read-out: DE-19bDNA EC50.
Format: cell-based, hepatitis B virus
`CN(C(=O)c1ccc2cn[nH]c2c1)C1CNCc2[nH]c(=O)c3cc(F)c(F)cc3c21` (single isomer, unassigned) [Compound 496, N-(8,9-difluoro-6-oxo-1,2,3,4,5,6-hexahydrobenzo[c][1,7]naphthyridin-1-yl)-N-methyl-1H-indazole-6-carboxamide] showed an EC50 of 4200 nM.
`CN(C(=O)C1Cc2cc(F)ccc2N1)C1COCc2[nH]c(=O)c3cc(F)c(F)cc3c21` (single isomer, unassigned) [Compound 8, N-(8,9-Difluoro-6-oxo-1,4,5,6-tetrahydro-2H-pyrano[3,4-c]isoquinolin-1-yl)-5-fluoro-N-methylindoline-2-carboxamide] gave an EC50 of 1400 nM.
`CN(C(=O)c1cc2c(F)cc(F)cc2[nH]1)C1COCc2[nH]c(=O)c3cc(F)ccc3c21` (single isomer, unassigned) [Compound 35, 4,6-Difluoro-N-(8-fluoro-6-oxo-1,4,5,6-tetrahydro-2H-pyrano[3,4-c]isoquinolin-1-yl)-N-methyl-1H-indole-2-carboxamide] gave an EC50 of 1400 nM.
With `CN(C(=O)c1cc2ccccc2[nH]1)C1CCCc2[nH]c(=O)c3cc(F)c(F)cc3c21` (single isomer, unassigned) [Compound 466, N-(8,9-Difluoro-6-oxo-1,2,3,4,5,6-hexahydrophenanthridin-1-yl)-N-methyl-1H-indole-2-carboxamide] the EC50 was 2100 nM.
`CN(C(=O)c1cc2c(C(F)F)cccc2[nH]1)C1CNCc2[nH]c(=O)c3cc(F)ccc3c21` (single isomer, unassigned) [Compound 209, N-(8-Fluoro-6-oxo-1,2,3,4,5,6-hexahydrobenzo[c][1,7]naphthyridin-1-yl)-4-(difluoromethyl)-N-methyl-1H-indole-2-carboxamide] gave an EC50 of 4400 nM.
With `CN(C(=O)c1cc2c(F)cc(F)cc2[nH]1)C1COCc2[nH]c(=O)c3cc(F)c(F)cc3c21` (single isomer, unassigned) [Compound 43, N-(8,9-Difluoro-6-oxo-1,4,5,6-tetrahydro-2H-pyrano[3,4-c]isoquinolin-1-yl)-4,6-difluoro-N-methyl-1H-indole-2-carboxamide] the EC50 was 1800 nM.
`CN(C(=O)c1cc2c(C#N)cc(F)cc2[nH]1)C1COCc2[nH]c(=O)c3cc(F)ccc3c21` (single isomer, unassigned) [Compound 382, 4-Cyano-6-fluoro-N-(8-fluoro-6-oxo-1,4,5,6-tetrahydro-2H-pyrano[3,4-c]isoquinolin-1-yl)-N-methyl-1H-indole-2-carboxamide] showed an EC50 of 980 nM.
`CN(C(=O)c1cc2sc(Cl)cc2[nH]1)C1CNCc2[nH]c(=O)c3cc(F)c(F)cc3c21` (single isomer, unassigned) [Compound 453, 2-chloro-N-(8,9-difluoro-6-oxo-1,2,3,4,5,6-hexahydrobenzo[c][1,7]naphthyridin-1-yl)-N-methyl-4H-thieno[3,2-b]pyrrole-5-carboxamide] was tested, and the EC50 was 2200 nM.
With `CN(C(=O)c1cc2c(C(F)F)cccc2[nH]1)C1CNCc2[nH]c(=O)c3cc(F)c(F)cc3c21` (single isomer, unassigned) [Compound 208, N-(8,9-Difluoro-6-oxo-1,2,3,4,5,6-hexahydrobenzo[c][1,7]naphthyridin-1-yl)-4-(difluoromethyl)-N-methyl-1H-indole-2-carboxamide] the EC50 was 30 nM.
`CN(C(=O)c1ccc2c(c1)CCC2)C1CNCc2[nH]c(=O)c3cc(F)c(F)cc3c21` (single isomer, unassigned) [Compound 471, N-(8,9-difluoro-6-oxo-1,2,3,4,5,6-hexahydrobenzo[c][1,7]naphthyridin-1-yl)-N-methyl-2,3-dihydro-1H-indene-5-carboxamide] gave an EC50 of 8700 nM.
`CN(C(=O)c1cc2c(C(F)F)c(F)ccc2[nH]1)C1CNCc2[nH]c(=O)c3cc(F)c(F)cc3c21` (single isomer, unassigned) [Compound 264, N-(8,9-Difluoro-6-oxo-1,2,3,4,5,6-hexahydrobenzo[c][1,7]naphthyridin-1-yl)-4-(difluoromethyl)-5-fluoro-N-methyl-1H-indole-2-carboxamide] was tested, and the EC50 was 8230 nM.

Same assay, conditions: Hepatitis B virus, HepDE19, HepDE19 assay, inhibition of rcDNA formation, bDNA quantitation; read-out: DE-19bDNA EC50
Compound `CN(C(=O)c1ccc2nc[nH]c2c1)[C@@H]1COCc2[nH]c(=O)c3cc(F)c(F)cc3c21` [Compound 451, (S)-N-(8,9-difluoro-6-oxo-1,4,5,6-tetrahydro-2H-pyrano[3,4-c]isoquinolin-1-yl)-N-methyl-1H-benzo[d]imidazole-6-carboxamide] has an EC50 of 12300 nM.
For `[2H][C@@]1(N(C(=O)c2cc3sc(Cl)cc3[nH]2)[13C]([2H])([2H])[2H])COCc2[nH]c(=O)c3cc(F)c(F)cc3c21` [Compound 516, (S)-2-Chloro-N-(8,9-difluoro-6-oxo-1,4,5,6-tetrahydro-2H-pyrano[3,4-c]isoquinolin-1-yl-1-d)-N-(methyl-^13C-d3)-4H-thieno[3,2-b]pyrrole-5-carboxamide], the EC50 was 10 nM.
`CN(C(=O)c1ccc(Br)c(=O)[nH]1)[C@@H]1COCc2[nH]c(=O)c3cc(F)c(F)cc3c21` [Compound 216, (S)-5-Bromo-N-(8,9-difluoro-6-oxo-1,4,5,6-tetrahydro-2H-pyrano[3,4-c]isoquinolin-1-yl)-N-methyl-6-oxo-1,6-dihydropyridine-2-carboxamide] gave an EC50 of 7300 nM.
For `CN(C(=O)c1ccc2ccc(Cl)n2c1)[C@@H]1COCc2[nH]c(=O)c3cc(F)c(F)cc3c21` [Compound 366, (S)-3-Chloro-N-(8,9-difluoro-6-oxo-1,4,5,6-tetrahydro-2H-pyrano[3,4-c]isoquinolin-1-yl)-N-methylindolizine-6-carboxamide], the EC50 was 100 nM.
`CN(C(=O)c1cc(F)c(Cl)c(F)c1)[C@@H]1COCc2[nH]c(=O)c3cc(F)c(F)cc3c21` [Compound 173, 4-Chloro-N-(8,9-difluoro-6-oxo-2,4,5,6-tetrahydro-1H-pyrano[3,4-c]isoquinolin-1-yl)-3,5-difluoro-N-methylbenzamide] gave an EC50 of 10 nM.
Compound `CN(C(=O)c1ccc(C(F)F)c(F)c1)[C@@H]1COCc2[nH]c(=O)c3cc(F)c(F)cc3c21` [Compound 110, (S)-N-(8,9-Difluoro-6-oxo-1,4,5,6-tetrahydro-2H-pyrano[3,4-c]isoquinolin-1-yl)-4-(difluoromethyl)-3-fluoro-N-methylbenzamide] has an EC50 of 10 nM.
Compound `Cc1nn(C(F)F)c2ccc(C(=O)N(C)[C@@H]3COCc4[nH]c(=O)c5cc(F)c(F)cc5c43)cc12` [Compound 417, (S)-N-(8,9-Difluoro-6-oxo-1,4,5,6-tetrahydro-2H-pyrano[3,4-c]isoquinolin-1-yl)-1-(difluoromethyl)-N,3-dimethyl-1H-indazole-5-carboxamide] has an EC50 of 20 nM.
For `Cc1cccc2[nH]c(C(=O)N(C)[C@@H]3COCc4[nH]c(=O)c5cc(F)c(F)cc5c43)cc12` [Compound 330, (S)-N-(8,9-Difluoro-6-oxo-1,4,5,6-tetrahydro-2H-pyrano[3,4-c]isoquinolin-1-yl)-N,4-dimethyl-1H-indole-2-carboxamide], the EC50 was 10 nM.
With `CN(C(=O)[C@](C)(O)c1ccccc1)[C@@H]1COCc2[nH]c(=O)c3cc(F)c(F)cc3c21` [Compound 94, (R)-N-((S)-8,9-Difluoro-6-oxo-1,4,5,6-tetrahydro-2H-pyrano[3,4-c]isoquinolin-1-yl)-2-hydroxy-N-methyl-2-phenylpropanamide] the EC50 was 3200 nM.
`CN(C(=O)c1cc(-c2ccc(F)cc2)no1)[C@@H]1COCc2[nH]c(=O)c3cc(F)c(F)cc3c21` [Compound 236, (S)-N-(8,9-Difluoro-6-oxo-1,4,5,6-tetrahydro-2H-pyrano[3,4-c]isoquinolin-1-yl)-3-(4-fluorophenyl)-N-methylisoxazole-5-carboxamide] gave an EC50 of 15100 nM.
For `CN(C(=O)c1cc2cc(C(F)F)ccn2c1)[C@@H]1COCc2[nH]c(=O)c3cc(F)c(F)cc3c21` [Compound 374, (S)-N-(8,9-Difluoro-6-oxo-1,4,5,6-tetrahydro-2H-pyrano[3,4-c]isoquinolin-1-yl)-7-(difluoromethyl)-N-methylindolizine-2-carboxamide], the EC50 was 24000 nM.
With `COc1ccc2cc(C(=O)N(C)[C@@H]3COCc4[nH]c(=O)c5cc(F)c(F)cc5c43)[nH]c2c1` [Compound 364, (S)-N-(8,9-Difluoro-6-oxo-1,4,5,6-tetrahydro-2H-pyrano[3,4-c]isoquinolin-1-yl)-6-methoxy-N-methyl-1H-indole-2-carboxamide] the EC50 was 30 nM.
For `CN(C(=O)c1cc2cc(Cl)cnc2[nH]1)[C@@H]1COCc2[nH]c(=O)c3cc(F)c(F)cc3c21` [Compound 191, (S)-5-Chloro-N-(8,9-difluoro-6-oxo-1,4,5,6-tetrahydro-2H-pyrano[3,4-c]isoquinolin-1-yl)-N-methyl-1H-pyrrolo[2,3-b]pyridine-2-carboxamide], the EC50 was 120 nM.
For `CN(C(=O)c1cc2cc(F)c(F)cc2[nH]1)[C@@H]1COC(O)c2[nH]c(=O)c3cc(F)c(F)cc3c21` (stereo partly drawn) [Compound 187, N-((1S)-8,9-Difluoro-4-hydroxy-6-oxo-1,4,5,6-tetrahydro-2H-pyrano[3,4-c]isoquinolin-1-yl)-5,6-difluoro-N-methyl-1H-indole-2-carboxamide], the EC50 was 10 nM.
In the case of `CN(C(=O)c1cnn(C(C)(C)C)c1)[C@@H]1COCc2[nH]c(=O)c3cc(F)c(F)cc3c21` [Compound 196, (S)-1-(tert-Butyl)-N-(8,9-difluoro-6-oxo-1,4,5,6-tetrahydro-2H-pyrano[3,4-c]isoquinolin-1-yl)-N-methyl-1H-pyrazole-4-carboxamide], the EC50 is reported as 3100 nM.
Compound `CN(C(=O)c1ccc2[nH]ncc2c1)[C@@H]1COCc2[nH]c(=O)c3cc(F)c(F)cc3c21` [Compound 429, (S)-N-(8,9-Difluoro-6-oxo-1,4,5,6-tetrahydro-2H-pyrano[3,4-c]isoquinolin-1-yl)-N-methyl-1H-indazole-5-carboxamide] has an EC50 of 980 nM.
`CN(C(=O)c1cccc(-c2cccc(F)c2)c1)C1CNCc2[nH]c(=O)c3cc(F)c(F)cc3c21` (single isomer, unassigned) [Compound 304, N-(8,9-Difluoro-6-oxo-1,2,3,4,5,6-hexahydrobenzo[c][1,7]naphthyridin-1-yl)-3′-fluoro-N-methyl-[1,1′-biphenyl]-3-carboxamide] gave an EC50 of 20000 nM.
